The supplement of paper PMC10307832

Legend:
Assay in all cases: relative viability (nuclei count vs DMSO), 5 days (fraction); higher = more cells survive
[1] = test system: HOP-62
Outline: (§1)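 After 5 days of treatment, lung cancer cells in 1536-well plates were fixed and stained in a single step (final 0.05% Triton X-100, 1% formaldehyde, 1 ug/ml Hoechst) and their nuclei counted on 4× images. Treatment had been applied by pin tool the day after seeding as one drug alone or as a fixed anchor-drug dose with five library-drug doses (not always all listed) in √10 steps. Relative viability is the nuclei count of treated wells divided by that of vehicle wells, and values are medians of duplicate plates.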

[2] = test system: NCI-H727
Outline: as §1

[3] = test system: SW 1573
Outline: as §1

[4] = test system: A-427
Outline: as §1

[5] = test system: NCI-H460
Outline: as §1

[6] = test system: NCI-H2228
Outline: as §1

[7] = test system: CAL-12T
Outline: as §1

[8] = test system: NCI-H2009
Outline: as §1

[9] = test system: NCI-H1915
Outline: as §1

[10] = test system: COR-L 105
Outline: as §1

[11] = test system: NCI-H1437
Outline: as §1

[12] = test system: HARA
Outline: as §1

[13] = test system: HCC-827
Outline: as §1

[14] = test system: SK-LU-1
Outline: as §1

[15] = test system: EMC-BAC-2
Outline: as §1

[16] = test system: NCI-H23
Outline: as §1

[17] = test system: NCI-H1395
Outline: as §1

[18] = test system: LCLC-103H
Outline: as §1

[19] = test system: NCI-H522
Outline: as §1

[20] = test system: HCC-366
Outline: as §1

[21] = test system: NCI-H1755
Outline: as §1

[22] = test system: NCI-H1792
Outline: as §1

COc1nc(C)cnc1NS(=O)(=O)c1cccnc1-c1ccc(-c2nnco2)cc1 [Zibotentan] + Cc1nc(Nc2ncc(C(=O)Nc3c(C)cccc3Cl)s2)cc(N2CCN(CCO)CC2)n1 [Dasatinib] (partner 0.075 µM)
relative viability ([1]; first compound 0.08 µM): 0.706
relative viability ([1]; first compound 0.253 µM): 0.634
relative viability ([1]; first compound 0.8 µM): 0.719
relative viability ([1]; first compound 2.53 µM): 0.758
relative viability ([2]; first compound 0.08 µM): 0.333
relative viability ([2]; first compound 0.253 µM): 0.251
relative viability ([2]; first compound 0.8 µM): 0.279
relative viability ([2]; first compound 2.53 µM): 0.372
relative viability ([3]; first compound 0.08 µM): 0.565
relative viability ([3]; first compound 0.8 µM): 0.537
relative viability ([3]; first compound 2.53 µM): 0.556
relative viability ([4]; first compound 0.08 µM): 0.908
relative viability ([4]; first compound 0.253 µM): 0.69
relative viability ([4]; first compound 0.8 µM): 0.7
relative viability ([4]; first compound 2.53 µM): 0.828
relative viability ([5]; first compound 0.08 µM): 0.559
relative viability ([5]; first compound 0.253 µM): 0.391
relative viability ([5]; first compound 0.8 µM): 0.504
relative viability ([5]; first compound 2.53 µM): 0.602
relative viability ([6]; first compound 0.08 µM): 0.554
relative viability ([6]; first compound 0.253 µM): 0.509
relative viability ([6]; first compound 0.8 µM): 0.495
relative viability ([6]; first compound 2.53 µM): 0.608
relative viability ([7]; first compound 0.08 µM): 0.484
relative viability ([7]; first compound 0.253 µM): 0.473
relative viability ([7]; first compound 0.8 µM): 0.34
relative viability ([7]; first compound 2.53 µM): 0.479
relative viability ([8]; first compound 0.08 µM): 0.287
relative viability ([8]; first compound 0.253 µM): 0.28
relative viability ([8]; first compound 0.8 µM): 0.306
relative viability ([8]; first compound 2.53 µM): 0.292
relative viability ([9]; first compound 0.08 µM): 0.382
relative viability ([9]; first compound 0.253 µM): 0.29
relative viability ([9]; first compound 0.8 µM): 0.336
relative viability ([9]; first compound 2.53 µM): 0.29
relative viability ([10]; first compound 0.08 µM): 0.32
relative viability ([10]; first compound 0.253 µM): 0.353
relative viability ([10]; first compound 0.8 µM): 0.381
relative viability ([10]; first compound 2.53 µM): 0.405
relative viability ([11]; first compound 0.08 µM): 0.408
relative viability ([11]; first compound 0.253 µM): 0.292
relative viability ([11]; first compound 0.8 µM): 0.283
relative viability ([11]; first compound 2.53 µM): 0.428
relative viability ([12]; first compound 0.08 µM): 0.239
relative viability ([12]; first compound 0.253 µM): 0.227
relative viability ([12]; first compound 0.8 µM): 0.24
relative viability ([12]; first compound 2.53 µM): 0.243
relative viability ([13]; first compound 0.08 µM): 0.394
relative viability ([13]; first compound 0.253 µM): 0.267
relative viability ([13]; first compound 0.8 µM): 0.247
relative viability ([13]; first compound 2.53 µM): 0.384
relative viability ([14]; first compound 0.08 µM): 0.17
relative viability ([14]; first compound 0.253 µM): 0.172
relative viability ([14]; first compound 0.8 µM): 0.189
relative viability ([14]; first compound 2.53 µM): 0.198
relative viability ([15]; first compound 0.08 µM): 0.338
relative viability ([15]; first compound 0.8 µM): 0.295
relative viability ([15]; first compound 2.53 µM): 0.369
relative viability ([16]; first compound 0.08 µM): 0.859
relative viability ([16]; first compound 0.253 µM): 0.711
relative viability ([16]; first compound 0.8 µM): 0.553
relative viability ([16]; first compound 2.53 µM): 0.928
relative viability ([17]; first compound 0.08 µM): 0.409
relative viability ([17]; first compound 0.253 µM): 0.403
relative viability ([17]; first compound 0.8 µM): 0.409
relative viability ([17]; first compound 2.53 µM): 0.407
relative viability ([18]; first compound 0.08 µM): 0.47
relative viability ([18]; first compound 0.253 µM): 0.562
relative viability ([18]; first compound 0.8 µM): 0.451
relative viability ([18]; first compound 2.53 µM): 0.531
relative viability ([19]; first compound 0.08 µM): 0.479
relative viability ([19]; first compound 0.253 µM): 0.839
relative viability ([19]; first compound 0.8 µM): 0.974
relative viability ([19]; first compound 2.53 µM): 0.964
relative viability ([20]; first compound 0.08 µM): 0.73
relative viability ([20]; first compound 0.253 µM): 0.584
relative viability ([20]; first compound 0.8 µM): 0.359
relative viability ([20]; first compound 2.53 µM): 0.652
relative viability ([21]; first compound 0.08 µM): 0.433
relative viability ([21]; first compound 0.253 µM): 0.413
relative viability ([21]; first compound 0.8 µM): 0.4
relative viability ([21]; first compound 2.53 µM): 0.473
relative viability ([22]; first compound 0.08 µM): 0.872
relative viability ([22]; first compound 0.253 µM): 0.664
relative viability ([22]; first compound 0.8 µM): 0.635
relative viability ([22]; first compound 2.53 µM): 0.827
